This note sets out measurements from ChEMBL document CHEMBL1139046, “3,4-Dihydro-2H-benzoxazinones as dual-acting 5-HT1A receptor antagonists and serotonin reuptake inhibitors” (Bioorg Med Chem Lett, 2007).

The target in data set [1] is T1, 5-hydroxytryptamine receptor 1A (Homo sapiens, UniProt P08908).
T1 sequence (P08908 whole entry): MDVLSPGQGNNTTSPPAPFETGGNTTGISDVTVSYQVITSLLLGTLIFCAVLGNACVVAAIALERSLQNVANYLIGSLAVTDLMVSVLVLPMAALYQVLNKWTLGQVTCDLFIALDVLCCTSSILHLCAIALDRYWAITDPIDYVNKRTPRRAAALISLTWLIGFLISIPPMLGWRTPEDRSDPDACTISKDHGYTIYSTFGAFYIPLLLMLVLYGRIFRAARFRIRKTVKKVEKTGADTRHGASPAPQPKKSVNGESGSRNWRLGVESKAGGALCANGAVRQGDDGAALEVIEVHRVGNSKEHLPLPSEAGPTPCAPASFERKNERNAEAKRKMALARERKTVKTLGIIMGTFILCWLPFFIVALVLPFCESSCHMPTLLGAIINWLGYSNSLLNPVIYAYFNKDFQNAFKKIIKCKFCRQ
Kind of data set: Displacement of [3H]WAY-100635 from human cloned 5HT1A receptor expressed in CHO cells. In kind it is cell-based.

The target of data set [2] is 5-hydroxytryptamine receptor 1B (Homo sapiens, UniProt P28222). The data set can be described thus: Displacement of [3H]5-HT from human cloned 5HT1B receptor expressed in CHO cells. In kind it is cell-based.
In data set [3] the target is 5-hydroxytryptamine receptor 1D (Homo sapiens, UniProt P28221). The data set can be described thus: Displacement of [3H]5-HT from human cloned 5HT1D receptor expressed in CHO cells. In kind it is cell-based.
In data set [4] the target is Sodium-dependent serotonin transporter (Rattus norvegicus, UniProt P31652). Kind of data set: Inhibition of [3H]5-HT uptake at SERT in rat cortical synaptosomes. In kind it is subcellular, Brain.
Data set [5] is described as follows: Blood clearance in rat at 3 mg/kg, po. As to conditions: whole blood. The data set is classed as ADME, organism-based. Details: dose 3 mg/kg, route oral.
Data set [6] in a line: Oral bioavailability in rat at 3 mg/kg, po. In kind it is ADME, organism-based. As to conditions: in vivo.
In data set [7] the target is 5-hydroxytryptamine receptor 2A (Homo sapiens, UniProt P28223). The data set can be described thus: Displacement of [3H]ketanserin from human cloned 5HT2A receptor expressed in HEK293 cells. In kind it is cell-based.
The target of data set [8] is 5-hydroxytryptamine receptor 2B (Homo sapiens, UniProt P41595). The data set can be described thus: Displacement of [3H]5-HT from human cloned 5HT2B receptor expressed in HEK293 cells. The data set is classed as cell-based.
The target in data set [9] is T2, 5-hydroxytryptamine receptor 2C (Homo sapiens, UniProt P28335).
T2 sequence (P28335 whole entry): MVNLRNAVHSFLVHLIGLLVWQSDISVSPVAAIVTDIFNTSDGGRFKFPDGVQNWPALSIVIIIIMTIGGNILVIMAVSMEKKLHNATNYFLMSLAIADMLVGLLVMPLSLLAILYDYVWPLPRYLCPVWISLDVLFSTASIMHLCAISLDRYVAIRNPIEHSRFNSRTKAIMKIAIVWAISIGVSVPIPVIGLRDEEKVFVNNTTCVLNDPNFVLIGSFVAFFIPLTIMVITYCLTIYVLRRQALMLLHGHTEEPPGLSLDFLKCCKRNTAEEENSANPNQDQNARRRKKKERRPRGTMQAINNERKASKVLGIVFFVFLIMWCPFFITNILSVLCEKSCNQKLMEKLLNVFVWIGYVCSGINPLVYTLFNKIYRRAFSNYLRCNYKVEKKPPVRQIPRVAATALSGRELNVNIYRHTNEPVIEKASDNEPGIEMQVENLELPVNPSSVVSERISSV
Kind of data set: Displacement of [3H]mesulergine from human cloned 5HT2C receptor expressed in HEK293 cells. The data set is classed as cell-based.

Data set [10] concerns the target 5-hydroxytryptamine receptor 6 (Homo sapiens, UniProt P50406). The data set can be described thus: Displacement of [3H]LSD from human cloned 5HT6 receptor expressed in HeLa cells. In kind it is cell-based.
The target of data set [11] is 5-hydroxytryptamine receptor 7 (Homo sapiens, UniProt P34969). Kind of data set: Displacement of [3H]5CT from human cloned 5HT7a receptor expressed in HEK293 cells. The data set is classed as cell-based.
The target of another data set is D(2) dopamine receptor (Homo sapiens, UniProt P14416). Kind of data set: Displacement of [125I]iodosulpiride from human cloned D2 receptor expressed in CHO cells. The data set is classed as cell-based.
A further data set deals with D(3) dopamine receptor (Homo sapiens, UniProt P35462). Kind of data set: Displacement of [125I]iodosulpiride from human cloned D3 receptor expressed in CHO cells. In kind it is cell-based.
Data set [12] has as its target Alpha-1B adrenergic receptor (Homo sapiens) (UniProt P35368). Kind of data set: Binding affinity at adrenergic alpha 1b receptor.
The nature of data set [13]: Ratio of drug level in brain to blood in rat.

The structures appear in SMILES notation.

Sequence of 5-hydroxytryptamine receptor 2B (P41595 whole entry): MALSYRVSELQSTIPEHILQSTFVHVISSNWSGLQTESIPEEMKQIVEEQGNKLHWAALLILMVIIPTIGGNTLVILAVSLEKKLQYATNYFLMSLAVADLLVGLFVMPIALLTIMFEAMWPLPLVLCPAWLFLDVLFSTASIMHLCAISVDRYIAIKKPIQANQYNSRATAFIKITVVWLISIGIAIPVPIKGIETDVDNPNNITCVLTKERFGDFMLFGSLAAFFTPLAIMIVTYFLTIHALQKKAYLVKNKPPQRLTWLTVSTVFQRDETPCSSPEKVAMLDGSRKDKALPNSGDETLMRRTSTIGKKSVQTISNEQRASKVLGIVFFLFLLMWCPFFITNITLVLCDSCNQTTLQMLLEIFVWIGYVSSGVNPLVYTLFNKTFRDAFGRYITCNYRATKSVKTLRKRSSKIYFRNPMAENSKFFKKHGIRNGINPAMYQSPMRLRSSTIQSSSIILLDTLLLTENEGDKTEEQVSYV
Sequence of 5-hydroxytryptamine receptor 1D (P28221 whole entry): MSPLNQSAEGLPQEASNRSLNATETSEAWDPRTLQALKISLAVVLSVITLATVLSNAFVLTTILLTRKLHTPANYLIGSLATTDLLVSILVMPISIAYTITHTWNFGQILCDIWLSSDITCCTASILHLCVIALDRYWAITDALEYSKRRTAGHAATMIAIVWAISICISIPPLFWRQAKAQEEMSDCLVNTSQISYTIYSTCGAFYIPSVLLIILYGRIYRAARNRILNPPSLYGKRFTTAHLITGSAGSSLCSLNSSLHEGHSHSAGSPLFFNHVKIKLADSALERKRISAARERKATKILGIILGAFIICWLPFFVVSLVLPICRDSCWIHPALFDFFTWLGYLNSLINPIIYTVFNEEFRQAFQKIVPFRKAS
Sequence of D(3) dopamine receptor (P35462 whole entry): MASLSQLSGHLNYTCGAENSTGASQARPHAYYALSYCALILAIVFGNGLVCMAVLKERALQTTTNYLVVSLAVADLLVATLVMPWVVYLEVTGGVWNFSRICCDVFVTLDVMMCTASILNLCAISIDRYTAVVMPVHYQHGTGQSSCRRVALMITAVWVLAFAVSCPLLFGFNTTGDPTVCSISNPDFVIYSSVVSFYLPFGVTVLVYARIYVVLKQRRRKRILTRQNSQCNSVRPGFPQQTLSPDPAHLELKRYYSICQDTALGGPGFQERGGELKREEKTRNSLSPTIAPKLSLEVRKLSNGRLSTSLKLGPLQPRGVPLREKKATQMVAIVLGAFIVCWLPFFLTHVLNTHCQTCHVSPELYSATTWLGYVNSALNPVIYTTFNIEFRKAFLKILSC
Sequence of 5-hydroxytryptamine receptor 2A (P28223 whole entry): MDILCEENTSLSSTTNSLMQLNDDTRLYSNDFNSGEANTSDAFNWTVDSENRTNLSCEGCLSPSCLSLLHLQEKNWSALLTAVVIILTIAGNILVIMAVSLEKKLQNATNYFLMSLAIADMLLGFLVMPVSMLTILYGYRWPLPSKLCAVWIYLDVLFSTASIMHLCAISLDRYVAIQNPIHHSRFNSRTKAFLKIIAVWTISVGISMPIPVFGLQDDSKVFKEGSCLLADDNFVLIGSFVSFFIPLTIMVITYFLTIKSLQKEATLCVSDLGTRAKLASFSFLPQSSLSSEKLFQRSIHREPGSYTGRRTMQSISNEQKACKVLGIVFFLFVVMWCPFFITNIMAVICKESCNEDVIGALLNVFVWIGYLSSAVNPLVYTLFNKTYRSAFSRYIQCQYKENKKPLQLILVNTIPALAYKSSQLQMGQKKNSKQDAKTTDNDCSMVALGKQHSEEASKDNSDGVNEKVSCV
Sequence of 5-hydroxytryptamine receptor 7 (P34969 whole entry): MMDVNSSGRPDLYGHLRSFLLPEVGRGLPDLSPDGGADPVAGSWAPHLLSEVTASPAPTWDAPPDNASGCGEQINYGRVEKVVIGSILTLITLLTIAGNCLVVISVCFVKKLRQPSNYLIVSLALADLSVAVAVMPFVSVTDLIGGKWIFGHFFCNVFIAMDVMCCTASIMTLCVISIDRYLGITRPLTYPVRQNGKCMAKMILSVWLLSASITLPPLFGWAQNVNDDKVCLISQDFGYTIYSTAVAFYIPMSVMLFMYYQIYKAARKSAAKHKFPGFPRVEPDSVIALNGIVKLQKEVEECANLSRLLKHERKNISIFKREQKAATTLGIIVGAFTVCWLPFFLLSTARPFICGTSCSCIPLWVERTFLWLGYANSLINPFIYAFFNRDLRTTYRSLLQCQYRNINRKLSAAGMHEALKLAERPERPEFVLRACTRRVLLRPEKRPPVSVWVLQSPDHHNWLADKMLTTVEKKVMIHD
Sequence of Sodium-dependent serotonin transporter (P31652 whole entry): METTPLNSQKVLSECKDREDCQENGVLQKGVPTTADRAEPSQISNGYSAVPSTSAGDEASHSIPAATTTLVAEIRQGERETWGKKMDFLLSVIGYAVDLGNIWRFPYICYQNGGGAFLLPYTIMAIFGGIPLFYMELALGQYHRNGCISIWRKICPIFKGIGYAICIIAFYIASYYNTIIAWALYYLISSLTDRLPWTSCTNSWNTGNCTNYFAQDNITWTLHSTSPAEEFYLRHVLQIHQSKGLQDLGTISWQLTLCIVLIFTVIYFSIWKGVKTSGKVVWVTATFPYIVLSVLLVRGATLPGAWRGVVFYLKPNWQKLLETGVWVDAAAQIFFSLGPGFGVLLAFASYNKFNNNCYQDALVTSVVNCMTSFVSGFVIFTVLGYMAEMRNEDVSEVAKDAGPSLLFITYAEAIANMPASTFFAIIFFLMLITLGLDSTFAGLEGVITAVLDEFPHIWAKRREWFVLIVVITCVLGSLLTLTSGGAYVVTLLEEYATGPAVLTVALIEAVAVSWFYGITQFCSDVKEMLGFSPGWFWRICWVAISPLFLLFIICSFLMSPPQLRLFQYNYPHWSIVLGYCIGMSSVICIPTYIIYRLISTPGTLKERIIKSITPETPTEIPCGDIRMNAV
Sequence of 5-hydroxytryptamine receptor 1B (P28222 whole entry): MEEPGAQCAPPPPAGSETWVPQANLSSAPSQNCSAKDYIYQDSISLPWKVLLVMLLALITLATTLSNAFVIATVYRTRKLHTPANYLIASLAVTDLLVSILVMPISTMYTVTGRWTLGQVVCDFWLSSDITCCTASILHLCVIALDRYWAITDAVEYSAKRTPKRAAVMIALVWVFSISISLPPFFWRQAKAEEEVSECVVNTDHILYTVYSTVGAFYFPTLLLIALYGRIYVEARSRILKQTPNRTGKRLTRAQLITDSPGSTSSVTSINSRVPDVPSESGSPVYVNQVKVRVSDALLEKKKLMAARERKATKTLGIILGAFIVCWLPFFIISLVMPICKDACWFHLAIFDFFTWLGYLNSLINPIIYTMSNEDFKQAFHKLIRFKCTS
Sequence of 5-hydroxytryptamine receptor 6 (P50406 whole entry): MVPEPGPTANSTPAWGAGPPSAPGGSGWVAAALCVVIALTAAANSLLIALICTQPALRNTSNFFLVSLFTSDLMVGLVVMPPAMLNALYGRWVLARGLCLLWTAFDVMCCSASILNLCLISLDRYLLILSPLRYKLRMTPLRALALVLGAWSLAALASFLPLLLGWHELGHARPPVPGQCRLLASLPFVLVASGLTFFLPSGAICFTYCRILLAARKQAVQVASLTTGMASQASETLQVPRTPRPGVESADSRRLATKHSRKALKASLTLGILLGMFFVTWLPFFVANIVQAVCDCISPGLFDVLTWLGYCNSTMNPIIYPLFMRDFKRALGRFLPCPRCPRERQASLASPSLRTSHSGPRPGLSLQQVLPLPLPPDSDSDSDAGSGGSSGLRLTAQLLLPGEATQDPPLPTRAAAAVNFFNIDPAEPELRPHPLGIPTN
Sequence of D(2) dopamine receptor (P14416 whole entry): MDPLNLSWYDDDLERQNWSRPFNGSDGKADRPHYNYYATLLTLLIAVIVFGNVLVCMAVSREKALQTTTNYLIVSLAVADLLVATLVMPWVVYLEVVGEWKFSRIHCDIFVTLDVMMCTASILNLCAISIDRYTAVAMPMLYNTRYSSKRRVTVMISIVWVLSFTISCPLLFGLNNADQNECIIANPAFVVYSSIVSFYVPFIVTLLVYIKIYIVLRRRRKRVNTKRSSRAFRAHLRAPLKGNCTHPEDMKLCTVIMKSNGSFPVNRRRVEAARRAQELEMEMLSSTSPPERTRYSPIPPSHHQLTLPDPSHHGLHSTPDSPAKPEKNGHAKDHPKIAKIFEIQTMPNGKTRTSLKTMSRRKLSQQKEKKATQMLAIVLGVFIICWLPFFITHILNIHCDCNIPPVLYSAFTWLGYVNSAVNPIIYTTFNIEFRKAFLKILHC
Sequence of Alpha-1B adrenergic receptor (Homo sapiens) (P35368 whole entry, looked up): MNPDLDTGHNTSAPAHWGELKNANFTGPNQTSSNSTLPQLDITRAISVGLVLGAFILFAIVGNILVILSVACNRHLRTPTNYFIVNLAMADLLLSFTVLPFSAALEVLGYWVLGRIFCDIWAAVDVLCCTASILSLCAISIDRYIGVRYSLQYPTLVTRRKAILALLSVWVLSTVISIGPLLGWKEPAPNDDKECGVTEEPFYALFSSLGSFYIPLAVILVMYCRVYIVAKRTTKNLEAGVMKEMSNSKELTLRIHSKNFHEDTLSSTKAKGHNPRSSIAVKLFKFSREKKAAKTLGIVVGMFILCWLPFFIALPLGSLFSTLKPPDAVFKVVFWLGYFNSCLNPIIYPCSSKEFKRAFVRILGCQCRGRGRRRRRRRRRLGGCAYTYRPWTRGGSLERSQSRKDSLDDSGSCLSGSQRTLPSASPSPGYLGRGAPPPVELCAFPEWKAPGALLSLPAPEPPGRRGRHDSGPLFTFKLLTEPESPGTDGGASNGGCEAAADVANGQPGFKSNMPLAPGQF

For the compound `Cc1ccc2c(OCCN3CCC(Cc4ccc5c(c4)NC(=O)CO5)CC3)cc(F)cc2n1`, the Ki in data set [1] is 0.794 nM; in data set [2], above 1000 nM; in [3] it was 398 nM; in [4] it was 15.8 nM. The same compound returned a CL/F in [5] of 25 mL/min/kg. The compound further came in with a bioavailability in data set [6] of 41%.
Turning to `Cc1ccc2c(OCCN3CCC(Cc4ccc5c(c4)NC(=O)CO5)CC3)cc(C#N)cc2n1`, the Ki was 20 nM in data set [1], 1000 nM in data set [2], 251 nM in data set [3] and 100 nM in [4].
The like results for `Cc1ccc2c(OCCN3CCC(Cc4ccc5c(c4)NC(=O)CO5)CC3)ccc(F)c2n1` were, in that order, 20 nM, 794 nM, 79.4 nM and 7.94 nM.
As to `Cc1ccc2c(OCCN3CCC(Cc4ccc5c(c4)NC(=O)CO5)CC3)cccc2n1`, the Ki was 3160 nM in data set [7]; 1580 nM in data set [8]; above 7940 nM in [9]; above 10000 nM in data set [10]; 200 nM in [11]; 1260 nM at D(2) dopamine receptor. Also, the results for the Ki (at D(3) dopamine receptor; in [12]) were 631 nM and 2510 nM, respectively. In addition, the CL/F in [5] was determined as 50 mL/min/kg. The compound also yielded a bioavailability in [6] of 45%.
On to `Cc1ccc2c(OCCN3CCC(Cc4cc(F)c5c(c4)NC(=O)CO5)CC3)cccc2n1`, for which the Ki in [1] is 5.01 nM; in data set [2], 0.794 nM; in data set [3] it was 0.398 nM; in data set [4] it was 6.31 nM. The compound further had a CL/F in data set [5] of 22 mL/min/kg.
In the case of `Cc1ccc2c(OCCN3CCC(Cc4ccc5c(c4)NC(=O)CO5)CC3)ccc(Cl)c2n1`, the Ki in data set [1] was 39.8 nM; in [2] it was 158 nM; in data set [3] it was 63.1 nM; in data set [4], 12.6 nM.
Take `Cc1ccc2c(OCCN3CCC(Cc4cc(F)c5c(c4)NC(=O)CO5)CC3)cc(Cl)cc2n1`: the Ki in [1] was 10 nM; in data set [2], 631 nM; in [3], 631 nM; in [4] it was 63.1 nM; in data set [7], 3160 nM; in [8] it was 3160 nM. In addition, the Ki is 2510 nM in data set [9]; above 10000 nM in data set [10]; 79.4 nM in data set [11]; 2510 nM on D(2) dopamine receptor; 1260 nM on D(3) dopamine receptor; 1580 nM in data set [12]. The compound also gave an apparent clearance CL/F in data set [5] of 16 mL/min/kg. Besides, the bioavailability in data set [6] is 51%.
As for `Cc1ccc2c(OCCN3CCC(Cc4ccc5c(c4F)NC(=O)CO5)CC3)cc(Cl)cc2n1`, the inhibition constant (Ki) in data set [1] was 2.51 nM; in data set [2], 1580 nM; in data set [3], 631 nM; in data set [4], 63.1 nM; in data set [7] it was 3980 nM; in [8], 1580 nM. The Ki was 3980 nM in data set [9]; above 10000 nM in data set [10]; 126 nM in data set [11]; 1260 nM at D(2) dopamine receptor; 1000 nM on D(3) dopamine receptor; 398 nM in [12]. The compound also came in with a CL/F in data set [5] of 28 mL/min/kg. This compound also came in with a bioavailability in data set [6] of 43%.
As for `Cc1ccc2c(OCCN3CCC(Cc4ccc5c(c4F)NC(=O)CO5)CC3)cccc2n1`, the Ki in [1] is 2.51 nM; in data set [2], 2.51 nM; in [3], 0.794 nM; in data set [4], 15.8 nM. In data set [5], this compound displayed a CL/F of 41 mL/min/kg. Moreover, the Kp in [13] was 4.
On to `Cc1ccc2c(OCCN3CCC(Cc4ccc5c(c4)NC(=O)CO5)CC3)c(F)ccc2n1`, for which the Ki in [1] was 50.1 nM; in [2], 31.6 nM; in [3], 2.51 nM; in [4] it was 10 nM.
Consider `Cc1ccc2c(OCCN3CCC(Cc4ccc5c(c4F)NC(=O)CO5)CC3)cc(F)cc2n1`, for which the Ki in data set [1] is 1.58 nM; in [2] it was 398 nM; in data set [3], 100 nM; in data set [4], 25.1 nM; in [7] it was 2000 nM; in data set [9], 2510 nM. The Ki in data set [10] is above 10000 nM; in data set [11] it was 126 nM; at D(2) dopamine receptor, 1260 nM; on D(3) dopamine receptor it was 794 nM; in data set [12], 1260 nM. In data set [5], this compound came in with a CL/F of 27 mL/min/kg. The same compound displayed a bioavailability in data set [6] of 39%. In [13], the Kp came out at 6.4.
As for `Cc1ccc2c(OCCN3CCC(Cc4cc5c(cc4F)OCC(=O)N5)CC3)cccc2n1`, the Ki in data set [1] is 0.501 nM; in data set [2], 20 nM; in data set [3], 3.16 nM; in data set [4], 7.94 nM. This compound registered a CL/F in data set [5] of 36 mL/min/kg. This compound returned a bioavailability in [6] of 33%.
On to `Cc1ccc2c(OCCN3CCC(Cc4cc(F)c5c(c4)NC(=O)CO5)CC3)cc(F)cc2n1`, for which the Ki in data set [1] is 3.98 nM; in [2], 316 nM; in data set [3], 79.4 nM; in data set [4], 63.1 nM; in data set [7], above 10000 nM; in [8] it was above 7940 nM. The Ki is above 10000 nM in data set [9]; above 6310 nM in data set [10]; 79.4 nM in data set [11]; above 10000 nM on D(2) dopamine receptor; 3980 nM at D(3) dopamine receptor. In data set [5], this compound gave a CL/F of 25 mL/min/kg. The same compound registered a bioavailability in [6] of 88%. Besides, the Kp in [13] stood at 0.4. In addition, the Log Ki in [12] is above -6.
In the case of `Cc1ccc2c(OCCN3CCC(Cc4ccc5c(c4)NC(=O)CO5)CC3)cc(Cl)cc2n1`, the inhibition constant Ki in [1] is 1.58 nM; in [2] it was 1260 nM; in data set [3] it was 794 nM; in [4] it was 10 nM. Besides, in [5], the CL/F stood at 25 mL/min/kg. This compound showed a bioavailability in data set [6] of 56%. In addition, the partition ratio (Kp) in data set [13] came out at 0.2.
